In patent EP4703359A1 (Shanghai Simr Biotechnology Co., Ltd., priority 2023, dated 2024):

Legend:
α2-GABAA receptor [1] = target: T1, α2-GABAA receptor (Homo sapiens, UniProt P18507+P47869); assay: Whole-cell patch-clamp electrophysiology, positive allosteric modulatory activity in α2-GABAAR-HEK293 cells; assay type: cell-based; conditions: compound 100 nM, GABA 0.10 to 0.11 µM (approximately EC7-8), normalized to reference compound CVL-865 (= 100%); for Emax at 0.1 µM: read-out: α2-GABAAR Positive allosteric modulatory activity
T1 construct: expressed in transfected cells
From the text: (§1) The α subunit, β subunit, and γ subunit are indispensable for forming a fully functional GABAA receptor. In this example, HEK293 cells stably expressing α2-GABAA receptors (α2-GABAAR) were constructed and screened respectively via liposome transfection (Felgner, P.L., et al. Proceedings of the National Academy of Sciences, 1987, 84: 7413-7417). The α2-GABAAR-HEK293 cell model co-expresses the α2 subunit (protein sequence referenced under GenBank accession number: NM_000807.4), β3 subunit (protein sequence referenced under GenBank accession number: NM_000814.5), and γ2 subunit (protein sequence referenced under GenBank accession number: NM_000816.3).
(§2) The above cell lines were subcultured. α2-GABAAR-HEK293 cells were amplified for testing the affinity of compounds to the benzodiazepine (BZD) site of GABAA receptors. Some of the α2-GABAAR-HEK293 cells in suspension during subculturing were plated on glass slides pre-treated with Poly-D-Lysine for electrophysiological testing (method reference: Patent CN 107344936 A, paragraph 0586).
The positive modulatory activity of the test drug on the α2-GABAA receptor was assessed using electrophysiological methods. The specific approach is as follows:
With regards to the concentration of the compound, the final concentration of all compounds used in the screening was 100 nM. For cell lines expressing α2-GABAA receptors, the GABA concentration was 0.10 to 0.11 µM (approximately EC7-8). Electrophysiological experiments were conducted using the whole-cell patch-clamp technique, which can be referenced to the method reported in the literature (Nickolls, S. A., et al. *British Journal of Pharmacology*, 2018, 175: 708-725). The composition of the extracellular solution (ECS) for electrophysiology was as follows: 150 mM NaCl, 5 mM KCl, 2.5 mM CaCl2, 1 mM MgCl2, 10 mM HEPES, and 10 mM glucose (pH 7.4). The intracellular solution (ICS) for electrophysiology was formulated as follows: 140 mM CsCl, 11 mM EGTA, 10 mM HEPES, 2 mM CaCl2, 1 mM MgCl2, 4 mM MgATP, and 2 mM TEA (pH 7.3). GABA (γ-aminobutyric acid) powder was dissolved in pure water to prepare a stock solution, which was subsequently diluted in ECS. The compound was initially dissolved in dimethyl sulfoxide to prepare a 4 mM stock solution, followed by stepwise dilution into GABA-ECS at corresponding concentrations. All solutions were freshly prepared prior to electrophysiological testing.
Electrophysiological signals were acquired using an EPC 10 amplifier and PatchMaster software (HEKA) or an Axon 700B amplifier and Clampex software (AXON). The recording electrode was pulled from borosilicate glass, with an electrode resistance of 4 to 6 MΩ. Extracellular administration was performed using the ALA-VC-8PG™ system. A single independently growing cell was selected. After forming a tight seal between the glass electrode and the cell membrane, the membrane was ruptured to establish the whole-cell configuration. The cell membrane potential was clamped at -60 mV and recorded in Gap-free mode. During the test, extracellular fluid was first applied externally for approximately 20 seconds. After the baseline (Iprebaseline) was stabilized, the extracellular solution was switched to GABA-ECS. At this point, the current induced by GABA (Igaba) can be detected. After approximately 10 to 20 seconds, once the current had stabilized, the extracellular solution was switched to a mixture of the compound and GABA-ECS until the current induced by both the compound and GABA (Itreatment) could be detected. Finally, the solution was switched to extracellular fluid, and the recording was terminated after 20 to 40 seconds. Only cells with a stable baseline, an absolute control current magnitude (Igaba - Iprebaseline) greater than 40 pA, and a relatively stable current within 10 to 20 seconds were used for compound testing. […]

α2-GABAA receptor [2] = target: T1, α2-GABAA receptor; assay: Radioactive ligand (3H-flunitrazepam) competitive binding assay, BZD site of membrane proteins of α2-GABAAR-HEK293 cells; conditions: competition with 1 nM 3H-flunitrazepam; HEK293 membranes expressing α2, β3, γ2 subunits; Ki calculated from IC50; read-out: α2 Ki
From the text: as §1, §2
The affinity of the compound for the α2-GABAA receptor was determined by competing with ^3H-flunitrazepam (isotope ^3H-labeled flunitrazepam) for binding to the BZD site of membrane proteins in HEK293 cells stably expressing human α2-GABAAR.
Membrane preparation: Cells were suspended in 50 mM Tris-HCl buffer (pH=7.4), homogenized on ice using a homogenizer for 20 seconds with 10 repetitions, and centrifuged at 4°C, 1000g for 10 minutes. The supernatant was collected, and the above steps were repeated. The supernatant was centrifuged at 4°C (33,800 × g; Thermo, rotor: A27-8x50) for 60 minutes, and the pellet was resuspended in Tris buffer (50 mM Tris-HCl, 10 mM MgCl2, 0.5 mM EDTA, 10% glycerol). The protein concentration was determined using the bicinchoninic acid (BCA) protein assay based on the copper ion reduction method (BCA kit purchased from Pierce (Annoron)). Aliquots of 1 mL were prepared and stored at -80°C.
Radioactive ligand competitive binding assay: This assay was conducted in a 200 µL system (96-well plate), containing 100 µL of cell membrane. The concentration of ^3H-flunitrazepam was 1 nM, and the concentration of the test compound ranged from […]. Flumazenil was used as a control. The low signal control well (Low Control, LC) was added with 1 µL of 2 mM flumazenil (final concentration 10 µM), while the high signal control well (High Control, HC) was added with 1 µL of dimethyl sulfoxide. The final concentration of the target membrane protein was 5 µg/well. All test compound stock solutions were prepared as 10 mM solutions in dimethyl sulfoxide. The working concentration of the samples was prepared by diluting all samples to 0.2 mM with dimethyl sulfoxide, followed by a 4-fold serial dilution to obtain a total of 8 concentration gradients. The 96-well plate was sealed with sealing film and then incubated on a shaker at room temperature for 1 hour. The GF/C filter plate was also soaked with a soaking buffer (0.3% PEI (polyethyleneimine, purchased from: Sigma-Aldrich, model: P314), stored at 4°C) for at least 0.5 hours. After the incubation was completed, the mixture was collected onto a GF/C filter plate using a cell harvester and washed four times with wash buffer (50 mM Tris-HCl, pH 7.4, stored at 4°C). After drying in a 50°C oven for 1 hour, the dried GF/C filter plate was sealed at the bottom with a film. The residual radioactivity on the filter membrane was detected using liquid scintillation counting. Each well was filled with 50 µL of scintillation fluid and sealed. Readings were taken using a Microbeta^2 (microplate counter, purchased from PerkinElmer, model: CNLL0153). The inhibitory activity of the test sample on the binding of ^3H-flunitrazepam to GABAA receptor membrane protein was calculated. […]

Row | Emax at 0.1 µM (α2-GABAA receptor [1]) [%] | Ki (α2-GABAA receptor [2]) [nM] | SMILES | α2-GABAAR Positive allosteric modulatory activity (α2-GABAA receptor [1]) [%]
1 | 44 | 90 | CCCNC(=O)c1nc2c(N3CCOCC3C)cccn2c1N (stereo not shown) [Example 149, 3-Amino-8-(3-methylmorpholino)-N-propylimidazo[1,2-a]pyridine-2-carboxamide] | –
2 | 32 | 34.1 | COc1cccc(F)c1-c1cccn2c(N)c(C(=O)NC3CCCC3)nc12 [Example 12, 3-Amino-N-cyclopentyl-8-(2-fluoro-6-methoxyphenyl)imidazo[1,2-a]pyridine-2-carboxamide] | –
3 | 107 | 4.46 | CCCNC(=O)c1nc2c(-c3c(F)cccc3OC)c(C#N)ccn2c1N [Example 148, 3-Amino-7-cyano-8-(2-fluoro-6-methoxyphenyl)-N-propylimidazo[1,2-a]pyridine-2-carboxamide] | –
4 | 93 | 3.37 | CCCNC(=O)c1nc2c(-c3cccc(C)c3F)cccn2c1N [Example 64, 3-Amino-8-(2-fluoro-3-methylphenyl)-N-propylimidazo[1,2-a]pyridine-2-carboxamide] | –
5 | 97 | 17.8 | CCCCNC(=O)c1nc2c(-c3c(F)cccc3OC)cccn2c1N [Example 26, 3-Amino-8-(2-fluoro-6-methoxyphenyl)-N-butylimidazo[1,2-a]pyridine-2-carboxamide] | –
6 | 105 | 33.6 | CCCNC(=O)c1nc2c(-c3cccc(CCC#N)c3)cccn2c1N [Example 37, 3-Amino-8-(3-(2-cyanoethyl)phenyl)-N-propylimidazo[1,2-a]pyridine-2-carboxamide] | –
7 | – | 35.2 | CCCNC(=O)c1nc2c(-c3cccc(C(F)(F)F)c3)cccn2c1N [Example 47, 3-Amino-N-propyl-8-(3-(trifluoromethyl)phenyl)imidazo[1,2-a]pyridine-2-carboxamide] | –
8 | 95 | 38.2 | CCCNC(=O)c1nc2c(-c3ccc(F)c(C#N)c3)cccn2c1N [Example 56, 3-Amino-8-(3-cyano-4-fluorophenyl)-N-propylimidazo[1,2-a]pyridine-2-carboxamide] | –
9 | 66 | 11.9 | COc1cccc(F)c1-c1cccn2c(N)c(C(=O)NC3CC(C)C3)nc12 (stereo not shown) [Example 8, 3-Amino-8-(2-fluoro-6-methoxyphenyl)-N-(3-methylcyclobutyl)imidazo[1,2-a]pyridine-2-carboxamide] | –
10 | 101 | 5.07 | COc1ccc(C#N)cc1-c1cccn2c(N)c(C(=O)NC3CC(C)C3)nc12 (stereo not shown) [Example 34, 3-Amino-8-(5-cyano-2-methoxyphenyl)-N-(3-methylcyclobutyl)imidazo[1,2-a]pyridine-2-carboxamide] | –
11 | 164 | 5.9 | CCCNC(=O)c1nc2c(-c3cc(C)cnc3OC)cccn2c1N [Example 83, 3-Amino-8-(2-methoxy-5-methylpyridin-3-yl)-N-propylimidazo[1,2-a]pyridine-2-carboxamide] | –
12 | 200 | 19.3 | COc1cccc(F)c1-c1cccn2c(N)c(C(=O)Nc3cc(C)on3)nc12 [Example 16, 3-Amino-8-(2-fluoro-6-methoxyphenyl)-N-(5-methylisoxazol-3-yl)imidazo[1,2-a]pyridine-2-carboxamide] | –
13 | 93 | 27 | CCCNC(=O)c1nc2c(-c3cc4c(cc3OC)N(C)C(=O)CO4)cccn2c1N [Example 91, 3-Amino-8-(6-methoxy-4-methyl-3-oxo-3,4-dihydro-2H-benzo[b][1,4]oxazin-7-yl)-N-propylimidazo[1,2-a]pyridine-2-carboxamide] | –
14 | 91 | 28.8 | COc1cccc(F)c1-c1cccn2c(N)c(C(=O)NCCC(F)(F)F)nc12 [Example 25, 3-Amino-8-(2-fluoro-6-methoxyphenyl)-N-(3,3,3-trifluoropropyl)imidazo[1,2-a]pyridine-2-carboxamide] | –
15 | – | 2.44 | CCCNC(=O)c1nc2c(-c3cccc(Cl)c3F)cccn2c1N [Example 66, 3-Amino-8-(3-chloro-2-fluorophenyl)-N-propylimidazo[1,2-a]pyridine-2-carboxamide] | –
16 | 123 | – | CCCNC(=O)c1nc2c(-c3cccnc3OC)c(F)ccn2c1N [Example 115, 3-Amino-7-fluoro-8-(2-methoxypyridin-3-yl)-N-propylimidazo[1,2-A]pyridine-2-carboxamide] | –
17 | 73 | – | CCCNC(=O)c1nc2c(-c3c(F)cccc3SC)cccn2c1N [Example 74, 3-Amino-8-(2-fluoro-6-(methylthio)phenyl)-N-propylimidazo[1,2-a]pyridine-2-carboxamide] | –
18 | 87 | – | CCCNC(=O)c1nc2c(-c3c(OC)ccc4ccoc34)cccn2c1N [Example 103, 3-Amino-8-(6-methoxybenzofuran-7-yl)-N-propylimidazo[1,2-a]pyridine-2-carboxamide] | –
19 | – | – | CCCNC(=O)c1nc2c(-c3cc(F)cc(C#N)c3)c(F)ccn2c1N [Example 127] | 77
20 | 50 | – | CCCNC(=O)c1nc2c(-c3c(F)ccc4ccc(OC)cc34)cccn2c1N [Example 108, 3-Amino-8-(2-fluoro-7-methoxynaphthalen-1-yl)-N-propylimidazo[1,2-a]pyridine-2-carboxamide] | –
21 | – | – | [2H]c1ccc(-c2c(F)cccc2OC)c2nc(C(=O)NCCC)c(N)n12 [Example 156, 3-amino-8-(2-fluoro-6-methoxyphenyl)-N-propylimidazo[1,2-a]pyridine-5-deuterium-2-carboxamide] | 100
